Data from patent US20200069805A1, “PHARMACEUTICAL COMPOSITIONS WITH SYNCHRONIZED SOLUBILIZER RELEASE” (Lipocine Inc., priority 2003, published 2020).
Converted amounts (≈) assume the structure as drawn.

Key:
[1] = cited from earlier work
[2] = Equilibrium aqueous solubility of cilostazol in simulated intestinal fluid with solubilizers; format: physicochemical
Method: Solutions of simulated intestinal fluid without enzyme (USP 26, pH 6.8) were prepared over a range of solubilizer concentrations. Excess cilostazol was added and equilibrated with gentle mixing at controlled temperature (37±0.5° C.). The aqueous solutions with excess drug were then filtered ([…] nominal pore size) and the clear filtrate was diluted and assayed by HPLC for cilostazol concentrations.

[3] = immediate release tablet dosage form; high fat meal; cited from earlier work

Row | solubility enhancement of cilostazol ([2]; Cremphor RH40 at 0.05% w/v) [%] | solubility enhancement of cilostazol ([2]; Cremphor RH40 at 1% w/v) [fold] | increase in solubility of cilostazol over its intrinsic aqueous solubility ([2]; d-a-tocopherol polyethylene glycol 1000 succinate at 0.05% w/v) [%] | increase in solubility of cilostazol over its intrinsic aqueous solubility ([2]; d-a-tocopherol polyethylene glycol 1000 succinate at 1% w/v) [fold] | solubility ([2]; simulated intestinal fluid without enzyme (USP 26), fassgf or other biorelevant, thermodynamic from solid, SIF without enzyme pH 6.8, 37 °C, no solubilizer, read-out: intrinsic solubility of cilostazol) [µg/mL] | SMILES | equilibrium solubility of the acid addition HCl salt [1] | pKa [1] | water solubility [1] | aqueous solubility at low pH ([1]; low pH, limited by relatively insoluble hydrochloric acid addition salt) | AUC increase [3] | Cmax increase [3]
1 |  |  |  |  |  | COc1ccccc1OCCNCC(O)COc1cccc2[nH]c3ccccc3c12 (centres unmarked) [Carvedilol] | about 1 mg/ml | about 7.6 | less than 0.001 mg/ml | less than 1 mg/ml |  | 
2 | ~30 | ~5 | ~60 | ~10 | 6.5 (≈ 17.6 µM) | O=C1CCc2cc(OCCCCc3nnnn3C3CCCCC3)ccc2N1 [cilostazol] |  |  |  |  | about 25% | about 90%
